Data on 32 compounds can be found in patent US10538516B2, “Oxadiazole derivative and pharmaceutical containing same” (National Center for Geriatrics and Gerontology, priority 2015, dated 2020).

Bounds are passed on as bounds.

The target in the first assay is T1, GAβ-dependent amyloid fibril formation (Human Aβ1-40 + GM1-containing liposome) (Homo sapiens, UniProt P05067).
T1 construct: Human Aβ1-40 (cat. #4307-v, prepared by Peptide Institute); purchased Peptide Institute 4307-v
T1 sequence (P05067 672-711 limits assumed): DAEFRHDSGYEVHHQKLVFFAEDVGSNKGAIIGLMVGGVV
Nature of the assay: Thioflavin T (ThT) assay of GAβ-dependent amyloid fibril formation (Aβ1-40 with GM1-containing liposome). In kind it is biochemical. The conditions noted are these: @25 μM; read-out: ThT Inhibitory activity (% inhibition). The gist of the method: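 Human Aβ1-40 (75 μM stock) pre-incubated 10 min at room temperature with compound (75 or 15 μM solution), then GM1-containing cholesterol/sphingomyelin liposome added and incubated 37° C, 18 hours. Fibrils quantified by ThT fluorescence (ex 430/em 490 nm, pH 8.5 glycine buffer); inhibition as ratio to compound-free control.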
Consider `O=C(N[C@@H](CO)c1nc(-c2ccc(C(F)(F)F)cc2)no1)c1c(F)cccc1F` [Compound 197, 2,6-difluoro-N-[(1S)-2-hydroxy-1-{3-[4-(trifluoromethyl)phenyl]-1,2,4-oxadiazol-5-yl}ethyl]benzamide], for which the inhibition at 25 µM was 70%.

With `O=C(N[C@@H](CO)c1nc(-c2ccc(C(F)(F)F)cc2)no1)c1ccc(N2CCCC2)cc1` [Compound 203, N-[(1S)-2-hydroxy-1-{3-[4-(trifluoromethyl)phenyl]-1,2,4-oxadiazol-5-yl}ethyl]-4-(pyrrolidin-1-yl) benzamide], the inhibition at 25 µM was found to be 81%.

With `Cl.O=C(N[C@@H](CO)c1nc(-c2ccc(C(F)(F)F)cn2)no1)c1ccc(F)cc1` [Compound 206, 4-fluoro-N-[(1S)-2-hydroxy-1-{3-[5-(trifluoromethyl)pyridin-2-yl]-1,2,4-oxadiazol-5-yl}ethyl]benzamide hydrochloride], the inhibition at 25 µM was 55%. Consider `O=C(N[C@@H](CO)c1nc(-c2c[nH]c3ccccc23)no1)c1ccc(F)cc1` [Compound 211, 4-fluoro-N-[(1S)-2-hydroxy-1-[3-(1H-indol-3-yl)-1,2,4-oxadiazol-5-yl]ethyl]benzamide], for which the inhibition at 25 µM is 89%.

Staying with this assay, now noted: inhibition rate against amyloid fibril formation, final concentration of the compound 25 μM.
On to `O=C(N[C@@H](CO)c1nc(-c2ccc(C(F)(F)F)cn2)no1)c1ccc(Cl)cc1` [Compound 205, 4-chloro-N-[(1S)-2-hydroxy-1-{3-[5-(trifluoromethyl)pyridin-2-yl]-1,2,4-oxadiazol-5-yl}ethyl]benzamide], for which the “Inhibitory activity ABC evaluation” value was “B (40% or more and less than 80% were evaluated as B)”. On to `Cl.O=C(N[C@@H](CO)c1nc(-c2ccc(C(F)(F)F)cn2)no1)c1ccc(F)cc1` [Compound 206, 4-fluoro-N-[(1S)-2-hydroxy-1-{3-[5-(trifluoromethyl)pyridin-2-yl]-1,2,4-oxadiazol-5-yl}ethyl]benzamide hydrochloride], for which the “Inhibitory activity ABC evaluation” value was “B (40% or more and less than 80% were evaluated as B)”. Still for that read-out and setting: under `Cl.O=C(N[C@@H](CO)c1nc(-c2ccc(C(F)(F)F)cn2)no1)c1ccc(Cl)cc1` [Compound 207, 4-chloro-N-[(1S)-2-hydroxy-1-{3-[5-(trifluoromethyl)pyridin-2-yl]-1,2,4-oxadiazol-5-yl}ethyl]benzamide hydrochloride] stands “A (80% or more was evaluated as A)”.

The assay is the same for the next values; noted with them: inhibition rate against amyloid fibril formation, final concentration of the compound 25 μM; read-out: Inhibitory activity ABC evaluation.
Take `O=C(N[C@@H](CO)c1nc(-c2ccc(C(F)(F)F)cc2)no1)c1cc(F)cc(F)c1` [Compound 196, 3,5-difluoro-N-[(1S)-2-hydroxy-1-{3-[4-(trifluoromethyl)phenyl]-1,2,4-oxadiazol-5-yl}ethyl]benzamide]: the inhibition at 25 µM was greater than 80%.

Take `O=C(N[C@@H](CO)c1nc(-c2ccc(C(F)(F)F)cc2)no1)c1c(F)cccc1F` [Compound 197, 2,6-difluoro-N-[(1S)-2-hydroxy-1-{3-[4-(trifluoromethyl)phenyl]-1,2,4-oxadiazol-5-yl}ethyl]benzamide]: the inhibition at 25 µM was in the range of 40 to 80%.

Consider `O=C(N[C@@H](CO)c1nc(-c2ccc(C(F)(F)F)cc2)no1)c1ccc(Cl)s1` [Compound 198, 5-chloro-N-[(1S)-2-hydroxy-1-{3-[4-(trifluoromethyl)phenyl]-1,2,4-oxadiazol-5-yl}ethyl]thiophene-2-carboxamide], for which the inhibition at 25 µM was greater than 80%. For the compound `O=C(N[C@@H](CO)c1nc(-c2ccc(C(F)(F)F)cc2)no1)c1ccc(OC(F)(F)F)cc1` [Compound 199, N-[(1S)-2-hydroxy-1-{3-[4-(trifluoromethyl)phenyl]-1,2,4-oxadiazol-5-yl}ethyl]-4-(trifluoromethoxy) benzamide], the inhibition at 25 µM was greater than 80%. As for `O=C(N[C@@H](CO)c1nc(-c2ccc(C(F)(F)F)cc2)no1)c1ccc(N2CCOCC2)cc1` [Compound 200, N-[(1S)-2-hydroxy-1-{3-[4-(trifluoromethyl)phenyl]-1,2,4-oxadiazol-5-yl}ethyl]-4-(morpholin-4-yl) benzamide], the inhibition at 25 µM lay in the range of 40 to 80%. On to `O=C(N[C@@H](CO)c1nc(-c2ccc(C(F)(F)F)cc2)no1)c1ccc(Oc2ccccc2)cc1` [Compound 201, N-[(1S)-2-hydroxy-1-{3-[4-(trifluoromethyl)phenyl]-1,2,4-oxadiazol-5-yl}ethyl]-4-phenoxybenzamide], for which the inhibition at 25 µM is greater than 80%. In the case of `O=C(N[C@@H](CO)c1nc(-c2ccc(C(F)(F)F)cc2)no1)c1ccc2ccccc2c1` [Compound 202, N-[(1S)-2-hydroxy-1-{3-[4-(trifluoromethyl)phenyl]-1,2,4-oxadiazol-5-yl}ethyl]naphthalene-2-carboxamide], the inhibition at 25 µM fell in the range of 40 to 80%. As to `O=C(N[C@@H](CO)c1nc(-c2ccc(C(F)(F)F)cc2)no1)c1ccc(N2CCCC2)cc1` [Compound 203, N-[(1S)-2-hydroxy-1-{3-[4-(trifluoromethyl)phenyl]-1,2,4-oxadiazol-5-yl}ethyl]-4-(pyrrolidin-1-yl) benzamide], the inhibition at 25 µM was greater than 80%. For the compound `O=C(N[C@@H](CO)c1nc(-c2ccc(C(F)(F)F)cn2)no1)c1ccc(F)cc1` [Compound 204, 4-fluoro-N-[(1S)-2-hydroxy-1-{3-[5-(trifluoromethyl)pyridin-2-yl]-1,2,4-oxadiazol-5-yl}ethyl]benzamide], the inhibition at 25 µM lay within 40 to 80%. As for `O=C(/C=C/c1ccc(F)cc1)N[C@@H](CO)c1nc(-c2ccc(C(F)(F)F)cc2)no1` [Compound 208, (2E)-3-(4-fluorophenyl)-N-[(1S)-2-hydroxy-1-{3-[4-(trifluoromethyl)phenyl]-1,2,4-oxadiazol-5-yl}ethyl]prop-2-enamide], the inhibition at 25 µM was in the range of 40 to 80%. As to `CN(C)c1ccc(C(=O)N[C@@H](CO)c2nc(-c3ccc(C(F)(F)F)cc3)no2)cc1` [Compound 209, 4-(dimethylamino)-N-[(1S)-2-hydroxy-1-{3-[4-(trifluoromethyl)phenyl]-1,2,4-oxadiazol-5-yl}ethyl]benzamide], the inhibition at 25 µM was greater than 80%.

In the case of `O=C(N[C@@H](CO)c1nc(-c2ccc(C(F)(F)F)s2)no1)c1ccc(F)cc1` [Compound 210, 4-fluoro-N-[(1S)-2-hydroxy-1-{3-[5-(trifluoromethyl)thiophen-2-yl]-1,2,4-oxadiazol-5-yl}ethyl] benzamide], the inhibition at 25 µM is greater than 80%.

With `O=C(N[C@@H](CO)c1nc(-c2c[nH]c3ccccc23)no1)c1ccc(F)cc1` [Compound 211, 4-fluoro-N-[(1S)-2-hydroxy-1-[3-(1H-indol-3-yl)-1,2,4-oxadiazol-5-yl]ethyl]benzamide], the inhibition at 25 µM was greater than 80%.

For `O=C(N[C@H](CO)c1nc(-c2ccc(C(F)(F)F)cc2)no1)c1ccc(F)cc1` [Compound 212, 4-fluoro-N-[(1R)-2-hydroxy-1-{3-[4-(trifluoromethyl)phenyl]-1,2,4-oxadiazol-5-yl}ethyl]benzamide], the inhibition at 25 µM was in the range of 40 to 80%.

Turning to `O=C(N[C@H](CO)c1nc(-c2ccc(C(F)(F)F)cc2)no1)c1ccccc1` [Compound 213, N-[(1R)-2-hydroxy-1-{3-[4-(trifluoromethyl)phenyl]-1,2,4-oxadiazol-5-yl}ethyl]benzamide], the inhibition at 25 µM was less than 40%.

With `O=C(N[C@H](CO)c1nc(-c2ccc(C(F)(F)F)cc2)no1)c1ccc(Cl)cc1` [Compound 214, 4-chloro-N-[(1R)-2-hydroxy-1-{3-[4-(trifluoromethyl)phenyl]-1,2,4-oxadiazol-5-yl}ethyl]benzamide], the inhibition at 25 µM was 40 to 80%. Same read-out and setting: under `O=C(N[C@@H](CO)c1nc(-c2cc(C(F)(F)F)cc(C(F)(F)F)c2)no1)c1ccc(F)cc1` [Compound 215, N-[(1S)-1-{3-[3,5-bis(trifluoromethyl)phenyl]-1,2,4-oxadiazol-5-yl}-2-hydroxyethyl]-4-fluorobenzamide] stands 40 to 80%; under `O=C(N[C@@H](CO)c1nc(-c2ccc(OCC(F)(F)F)cc2)no1)c1ccc(F)cc1` [Compound 216], less than 40%; under `O=C(N[C@@H](CO)c1nc(-c2ccc(C(F)(F)F)c(F)c2)no1)c1ccc(F)cc1` [Compound 217, 4-fluoro-N-[(1S)-1-{3-[3-fluoro-4-(trifluoromethyl)phenyl]-1,2,4-oxadiazol-5-yl}-2-hydroxyethyl] benzamide], 40 to 80%. The same measure, in the same setting: the result for `O=C(N[C@@H](CO)c1nc(-c2cc(F)cc(F)c2)no1)c1ccc(F)cc1` [Compound 218, N-[(1S)-1-[3-[3,5-difluorophenyl)-1,2,4-oxadiazol-5-yl]-2-hydroxyethyl]-4-fluorobenzamide] reads 40 to 80%; that for `O=C(N[C@@H](CO)c1nc(-c2ccc(F)cc2Cl)no1)c1ccc(F)cc1` [Compound 219, N-[(1S)-1-[3-(2-chloro-4-fluorophenyl)-1,2,4-oxadiazol-5-yl]-2-hydroxyethyl]-4-fluorobenzamide], less than 40%; that for `O=C(N[C@@H](CO)c1nc(-c2cccc(C(F)(F)F)c2)no1)c1ccc(N2CCOCC2)cc1` [Compound 220], greater than 80%.

On to `O=C(N[C@@H](CO)c1nc(-c2cccc(C(F)(F)F)c2)no1)c1ccc(N2CCCC2)cc1` [Compound 221, N-[(1S)-2-hydroxy-1-{3-[3-(trifluoromethyl)phenyl]-1,2,4-oxadiazol-5-yl}ethyl]-4-(pyrrolidin-1-yl) benzamide], for which the inhibition at 25 µM is greater than 80%. With `O=C(N[C@@H](CO)c1nc(-c2cccc(C(F)(F)F)c2)no1)c1cc(F)cc(Cl)c1` [Compound 222, 3-chloro-5-fluoro-N-[(1S)-2-hydroxy-1-{3-[3-(trifluoromethyl)phenyl]-1,2,4-oxadiazol-5-yl}ethyl]benzamide], the inhibition at 25 µM is greater than 80%. The same measure, in the same setting: under `O=C(N[C@@H](CO)c1nc(-c2cccc(C(F)(F)F)c2)no1)c1cc2ccccc2[nH]1` [Compound 223, N-[(1S)-2-hydroxy-1-{3-[3-(trifluoromethyl)phenyl]-1,2,4-oxadiazol-5-yl}ethyl]-1H-indole-2-carboxamide] stands 40 to 80%; under `C[Si](C)(C)c1ccc(-c2noc([C@H](CO)NC(=O)c3ccc(F)cc3)n2)cc1` [Compound 224, 4-fluoro-N-[(1S)-2-hydroxy-1-{3-[4-(trimethylsilyl)phenyl]-1,2,4-oxadiazol-5-yl}ethyl]benzamide], greater than 80%; under `O=C(N[C@@H](CO)c1nc(-c2ccc3ccccc3n2)no1)c1ccc(F)cc1` [Compound 225, 4-fluoro-N-[(1S)-2-hydroxy-1-[3-(quinolin-2-yl)-1,2,4-oxadiazol-5-yl]ethyl] benzamide], 40 to 80%.

For the compound `O=C(N[C@@H](CO)c1nc(-c2nccc3ccccc23)no1)c1ccc(F)cc1` [Compound 226, 4-fluoro-N-[(1S)-2-hydroxy-1-[3-(isoquinolin-1-yl)-1,2,4-oxadiazol-5-yl]ethyl]benzamide], the inhibition at 25 µM is 40 to 80%. As for `O=C(N[C@@H](CO)c1nc(-c2csc(Cl)c2)no1)c1ccc(F)cc1` [Compound 227], the inhibition at 25 µM was 40 to 80%.
